Drawing on BindingDB's records for patent US9701669 (Merck Sharp & Dohme Corp, 2017), this text covers IC50 for one molecule.

This experiment has as its target T1, Proteinase-activated receptor 1 (Homo sapiens, UniProt P25116).
T1 sequence (P25116 whole entry): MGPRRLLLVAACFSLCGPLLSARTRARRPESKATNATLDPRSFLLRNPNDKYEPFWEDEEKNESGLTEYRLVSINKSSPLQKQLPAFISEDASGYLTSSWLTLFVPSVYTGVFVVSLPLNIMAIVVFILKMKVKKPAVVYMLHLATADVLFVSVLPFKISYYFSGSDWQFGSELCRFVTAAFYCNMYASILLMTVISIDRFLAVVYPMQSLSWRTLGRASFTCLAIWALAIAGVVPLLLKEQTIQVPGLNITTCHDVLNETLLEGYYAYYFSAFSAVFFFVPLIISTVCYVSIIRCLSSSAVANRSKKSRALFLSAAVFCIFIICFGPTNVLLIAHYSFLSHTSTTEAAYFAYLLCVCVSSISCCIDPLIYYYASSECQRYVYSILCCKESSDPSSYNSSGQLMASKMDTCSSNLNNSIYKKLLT
In words: PAR-1 FLIPR Assay. The method, then: Media was then removed from the cells, incubated with 33 ul of Calcium-5 dye in assay buffer (Hank's buffer containing 20 mM HEPES, 0.04% Chaps and 2.5 mM Probenecid) for 60 minutes at 37° C. 2 uL of varying concentrations of compound in 40% DMSO in assay buffer (final DMSO concentration is 2.3%) were then added to the cells and incubated at 25° C. for 30 minutes. […] The range of peptide was from 1.5-3 μM. The final volume was 40 uL/well, with 2% DMSO. […] The data were analyzed by taking the peak signal over a portion of the range of the 60 scans and dividing this signal by the minimum signal for that same range.

pIC50: −log10 of the molar value.

In general, pIC50 refers to −log10 of the IC50, conventionally taken in molar units. A high value points to a low IC50. As for `Cc1nc(/C=C/[C@@H]2[C@@H]3[C@@H](C)OC(=O)[C@]3(C(N)=O)CC(F)(F)[C@H]2C)ccc1-c1ccccc1C#N` [US9701669, 4], the pIC50 is 8.16.
